This is an account of results in patent publication US9546150B2, “Substituted quinazolin-4-ones for inhibiting ubiquitin specific protease 7” (HYBRIGENICS SA, priority 2011, dated 2017).

One experiment concerns the target USP7 (Homo sapiens, UniProt Q93009). The experiment is described as follows: Time-dependent pre-incubation experiment with USP7, Ub-AMC. Also noted: Full-length wild-type human USP7 and its catalytic mutant; His tag (pFastBac-HT vector) (N); made in house; host or cells: Spodoptera frugiperda Sf9 (or High Five) insect cells, baculovirus. The format is biochemical. As to the method: To better understand the mechanism of inhibition of USP7 by our USP7-specific compounds, several experiments were performed. […] […].

The target in the next experiment is T1, USP8 (Homo sapiens, UniProt P40818).
T1 sequence (P40818 1-1118): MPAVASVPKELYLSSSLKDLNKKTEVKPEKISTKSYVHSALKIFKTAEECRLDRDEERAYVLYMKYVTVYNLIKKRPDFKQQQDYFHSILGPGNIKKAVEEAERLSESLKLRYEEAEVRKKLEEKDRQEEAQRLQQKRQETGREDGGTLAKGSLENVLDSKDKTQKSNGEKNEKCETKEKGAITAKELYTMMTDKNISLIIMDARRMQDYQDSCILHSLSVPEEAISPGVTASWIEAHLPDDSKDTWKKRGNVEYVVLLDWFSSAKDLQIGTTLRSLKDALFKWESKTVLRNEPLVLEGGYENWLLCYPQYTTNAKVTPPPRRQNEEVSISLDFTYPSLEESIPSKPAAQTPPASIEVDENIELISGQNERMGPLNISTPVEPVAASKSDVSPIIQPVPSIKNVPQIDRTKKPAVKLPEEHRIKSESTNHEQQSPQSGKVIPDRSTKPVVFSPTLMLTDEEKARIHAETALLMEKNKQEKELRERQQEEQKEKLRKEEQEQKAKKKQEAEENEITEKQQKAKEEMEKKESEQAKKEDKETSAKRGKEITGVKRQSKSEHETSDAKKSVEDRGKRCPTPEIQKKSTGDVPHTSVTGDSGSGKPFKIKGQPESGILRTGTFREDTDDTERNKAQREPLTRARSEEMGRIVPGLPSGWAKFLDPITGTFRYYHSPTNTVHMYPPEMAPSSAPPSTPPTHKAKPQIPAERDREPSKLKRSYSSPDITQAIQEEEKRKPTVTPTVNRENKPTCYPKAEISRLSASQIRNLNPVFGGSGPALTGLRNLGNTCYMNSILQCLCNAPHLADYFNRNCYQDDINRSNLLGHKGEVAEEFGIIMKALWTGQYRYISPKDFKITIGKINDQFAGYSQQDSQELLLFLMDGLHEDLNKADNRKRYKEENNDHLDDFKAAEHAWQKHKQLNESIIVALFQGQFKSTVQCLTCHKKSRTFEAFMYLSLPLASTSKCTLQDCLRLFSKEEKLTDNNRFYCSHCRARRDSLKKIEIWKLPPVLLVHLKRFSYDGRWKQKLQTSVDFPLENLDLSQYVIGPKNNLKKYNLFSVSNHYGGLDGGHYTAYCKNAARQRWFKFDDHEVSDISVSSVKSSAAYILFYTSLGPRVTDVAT
Description: HAUbVS competition assay in HEK293 cell lysates, USP8. Type of experiment: biochemical. On the set-up: His tag (pFastBac-HT vector); made in house. The following applies: 12.5-200 μM.

SMILES strings stand for the structures.

USP7, sequence (Q93009 whole entry): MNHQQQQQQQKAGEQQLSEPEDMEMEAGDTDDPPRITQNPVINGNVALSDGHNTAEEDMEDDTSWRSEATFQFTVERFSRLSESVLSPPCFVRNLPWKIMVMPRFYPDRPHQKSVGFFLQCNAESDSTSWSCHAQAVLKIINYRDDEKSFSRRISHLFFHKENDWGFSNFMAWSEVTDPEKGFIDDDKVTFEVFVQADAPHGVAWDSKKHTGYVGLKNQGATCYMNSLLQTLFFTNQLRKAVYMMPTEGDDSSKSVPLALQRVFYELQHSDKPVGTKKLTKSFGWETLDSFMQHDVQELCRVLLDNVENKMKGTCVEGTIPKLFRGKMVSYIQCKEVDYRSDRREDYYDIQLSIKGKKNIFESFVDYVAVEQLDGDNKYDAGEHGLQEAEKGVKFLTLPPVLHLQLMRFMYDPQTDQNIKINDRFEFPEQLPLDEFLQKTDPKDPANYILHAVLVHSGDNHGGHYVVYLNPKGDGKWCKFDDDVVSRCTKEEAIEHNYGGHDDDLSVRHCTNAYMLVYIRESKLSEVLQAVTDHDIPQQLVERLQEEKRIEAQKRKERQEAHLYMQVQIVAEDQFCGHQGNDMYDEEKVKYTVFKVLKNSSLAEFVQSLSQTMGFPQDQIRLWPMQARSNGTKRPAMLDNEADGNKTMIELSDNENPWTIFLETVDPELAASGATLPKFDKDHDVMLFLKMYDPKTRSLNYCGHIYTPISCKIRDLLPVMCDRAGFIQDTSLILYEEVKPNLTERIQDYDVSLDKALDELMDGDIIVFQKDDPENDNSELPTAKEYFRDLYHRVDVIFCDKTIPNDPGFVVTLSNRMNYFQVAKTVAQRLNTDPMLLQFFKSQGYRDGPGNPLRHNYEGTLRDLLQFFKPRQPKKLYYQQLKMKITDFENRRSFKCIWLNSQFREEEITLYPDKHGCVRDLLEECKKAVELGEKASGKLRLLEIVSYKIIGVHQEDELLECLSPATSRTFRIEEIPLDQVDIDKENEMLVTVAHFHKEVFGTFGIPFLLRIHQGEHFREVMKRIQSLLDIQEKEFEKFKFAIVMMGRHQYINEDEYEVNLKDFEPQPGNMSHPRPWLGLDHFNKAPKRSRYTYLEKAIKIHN
Description for USP8: The HA-Ub-VS probe (Hemagglutin tag-Ubiquitin-Vinyl Sulfone) was used in this study to directly visualize the activity of all deubiquitinating enzymes from native proteomes.
HEK293 cells were harvested and lysed on ice with a non denaturating buffer containing Tris pH7.4, 50 mM; NaCl, 150 mM; MgCl2, 5 mM; EDTA, 0.5 mM; DTT, 2 mM; ATP (adenosine triphosphate), 2 mM; NP40 (nonyl phenoxypolyethoxylethanol), 0.5% and glycerol, 10%. Samples were incubated at 4° C. for 1 hour and clarified. Proteins were then quantified by Bradford method (Bio-Rad Protein Assay). […] The ubiquitin labeling reaction was initiated by the addition of HA-Ub-VS (8 μg/ml) in labeling buffer (Tris pH7.6, 50 mM; MgCl2, 5 mM; EDTA, 0.5 mM; DTT, 2 mM; ATP, 2 mM; sucrose, 250 mM) and incubated at room temperature for 15 min. Samples were next heated at 100° C. for 10 minutes and briefly sonicated. They were resolved by SDS-polyacrylamide gel electrophoresis (SDS-PAGE), transferred to a nitrocellulose membrane and probed with antibodies against USP7, HA, UCH-L3, CYLD, USP8, USP5, USP10 and Stat3. […] Signals were detected by enhanced chemiluminescence (ECL; Amersham) according to the reagent manufacturer's instructions.

Take `O=C(CCc1ccccc1)N1CCC(O)(Cn2cnc3cc(Cl)ccc3c2=O)CC1` [Example 2, 7-chloro-3-{[4-hydroxy-1-(3-phenylpropanoyl)piperidin-4-yl]methyl}-3,4-dihydroquinazolin-4-one]: the “time dependence of USP7 inhibition” value at USP7 (100 μM, pre-incubation 30 min, 1 h, 2 h, 4 h, 6 h) was “not a time-dependent inhibitor”. At USP7 (USP7 100 pM, pre-incubation 30 min to 6 h, Ub-AMC), this compound showed an inhibition at 100 µM of about 75%. Regarding `CC(Cc1cccs1)C(=O)N1CCC(O)(Cn2cnc3ccccc3c2=O)CC1` (stereo not drawn) [Example 5, 3-({4-hydroxy-1-[2-methyl-3-(thiophen-2-yl)propanoyl]piperidin-4-yl}methyl)-3,4-dihydroquinazolin-4-one], the “blocking of HAUbVS labeling of USP8” value at USP8 was “without any cross-reaction”.

A word on the inhibition: it is the change of the read-out against control, counted positive when it falls. The low end stands for a response near the control, the high end for a response far below the control.
